Test results reported in publication PMC12582325 (Proceedings of the National Academy of Sciences of the …, 2025).
Where “and” joins values, the source holds several entries; their conditions need not be identical. Identical values can stand only once. Where a SMILES comes first, the peptide text is derived from it.

Experiments:
[1] = test system: Bb.Ste2; assay type: cell-based, Beauveria bassiana
[2] = test system: F. oxysporum microconidia; experiment: Germination of F. oxysporum microconidia; assay type: cell-based, Fusarium oxysporum f. sp. lycopersici 4287; parameters: Germination of F. oxysporum microconidia (data of Sup.Fig.10): unit not given here; details: for Germination of F. oxysporum microconidia (data of Sup.Fig.10): 400 μM pheromone, 13 h, at least 300 spores counted
Experimental: For F. oxysporum microconidia production, the strain was grown for 3 to 4 d in liquid potato dextrose broth (PDB) at 28 °C and 170 rpm. Germination media ([10]) was used for assessing the spore germination. RE was prepared by removing 2-wk-old tomato plants from vermiculite and washing the roots to remove any adhering substrates ([11]).
Supplementary Figure 10. Germination of F. oxysporum microconidia after 13 h of incubation in Germination Media at a cell density of […] microconidia/mL. The assay was performed with 400 μM of pheromone. All points represent the average of three biological replicates in which at least 300 spores were counted. Statistical significance was determined through one-way analysis of variance (ANOVA) with Dunnett’s multiple comparisons (✱p ≤ 0.05).

[3] = test system: Hj.Hpr2; assay type: cell-based, Hypocrea jecorina
[4] = test system: F. oxysporum germ tubes; details: gradient of 400 μM pheromone against the solvent (50% methanol); 13 h; water-agar; three biological replicates; Fig. 5A
Experimental: For the B. bassiana and F. oxysporum chemotropism assay and plant infection assays the pheromones were dissolved in 50% (v/v) MeOH to reach a concentration of 4,000 μM.
Fungal chemotropism was conducted as previously described ([11]). For each compound or combination of compounds tested, 300 hyphal tips were scored. All experiments were performed in three biological replicates.

[5] = test system: F. oxysporum infection of tomato plants; experiment: Tomato plant mortality assay; assay type: in vivo, Fusarium oxysporum / Solanum lycopersicum; details: groups of 10 plants; 3.2 × 10^6 microconidia/mL supplemented with pheromone once at inoculation; 50 d; Kaplan-Meier, log-rank
Experimental: Tomato plant infection assays were performed as described ([61]) with F. oxysporum microconidia and treatment inoculation as described above. Plants were transferred to a growth and plant survival was recorded daily for 50 d. Plant death was diagnosed as a complete collapse of the stem, without any green parts left. The Kaplan–Meier test was used to assess statistical significance of differences in survival among groups using the log-rank test in GraphPad Prism. The infection experiment was conducted two times with 10 plants per condition.

[6] = test system: no_GPCR (negative control lacking a GPCR); assay type: cell-based, Saccharomyces cerevisiae
[7] = test system: Fg.Ste2
[8] = test system: F. oxysporum in tomato roots; experiment: Quantification of fungal DNA in tomato roots (qPCR); details: 3 d after inoculation, washed roots; compared to the untreated infected roots; three biological replicates
[9] = test system: Fo.Ste2; assay type: cell-based, Fusarium oxysporum
[10] = test system: F. oxysporum on tomato roots; experiment: Tomato root inoculation and fluorescence microscopy of infected roots; assay type: in vivo, Fusarium oxysporum / Solanum lycopersicum; details: exogenous addition of pheromone to microconidia; 3 d after inoculation; fluorescence microscopy
[11] = test system: Fo.Ste2; assay type: cell-based, Fusarium oxysporum; remark: listed apart in the source
[12] = SC + added peptide, individual replicates (n=3), SC alone: 0, 0, 0

CC(C)C[C@H](NC(=O)[C@H](CS)NC(=O)[C@@H](N)Cc1c[nH]c2ccccc12)C(=O)N[C@@H](Cc1c[nH]c2ccccc12)C(=O)N[C@@H](C)C(=O)NCC(=O)N[C@@H](CCC(N)=O)C(=O)N1CCC[C@H]1C(=O)N[C@@H](CS)C(=O)N[C@@H](Cc1c[nH]c2ccccc12)C(=O)O [A4] (H-WCLWAGQPCW-OH; N-terminus assumed)
Fold increase in formation of diploids containing Bb.Ste2 [1]: 8.7 fold | Mean 2 (SC + peptide), Bb share of diploids [1]: 0.4075 | Mean Diff, SC vs. + peptide ([1]; n = 3): -0.3609 | Germination of F. oxysporum microconidia (data of Sup.Fig.10) ([2]; biological replicate 1 (first line)): 15 | Germination of F. oxysporum microconidia (data of Sup.Fig.10) ([2]; biological replicate 2 (second line)): 33,88 | Germination of F. oxysporum microconidia (data of Sup.Fig.10) ([2]; biological replicate 3 (third line)): 6,9 | Mean Diff, Solvent vs. peptide ([2]; Sup.Fig.10, Dunnett's multiple comparisons test, n = 3): 25,18 | Mean 2 (peptide), germination ([2]; Sup.Fig.10, Solvent control mean 43,77, mean of n = 3): 18,59 | Effect on F. oxysporum microconidia germination, in words ([2]; exogenous addition of 400 μM peptide, 13 h in Germination Media, 3.2 x 106 microconidia/mL): significant reduction | Fold increase in formation of diploids containing Hj.Hpr2 [3]: 12.1 fold | Mean 2 (SC + peptide), Hj share of diploids [3]: 0.02456 | barcode qPCR of diploids, Hj.HPR2 x Bb.Pheromone [3]: 0 | barcode qPCR of diploids, Hj.HPR2 x no_Pheromone [3]: 0 | Mean Diff, SC vs. + peptide ([3]; n = 3): -0.02252 | Chemotropic response in F. oxysporum germ tubes [4]: significant chemotropic response | Tomato plant survival [5]: no significant difference in plant survival | barcode qPCR of diploids, no_GPCR x Fg.Pheromone [6, 12]: 0.035 and 0.012 and 0 | barcode qPCR of diploids, no_GPCR x Hj.Pheromone [6, 12]: 0.002 and 0 (2×) | barcode qPCR of diploids, no_GPCR x Bb.Pheromone ([6]; SC + added peptide, individual replicates (n=3), SC alone: 0, 0, 0.004): 0.013 and 0.091 and 0 | barcode qPCR of diploids, no_GPCR x Fo.Pheromone ([6]; SC + added peptide, individual replicates (n=3), SC alone: 0, 0, 0.007): 0.014 and 0.039 and 0.054 | barcode qPCR of diploids, no_GPCR x no_Pheromone ([6]; SC + added peptide, individual replicates (n=3), SC alone: 0.001, 0.001, 0): 0.04 and 0 and 0.015 | Fold increase in diploids of the negative control lacking a GPCR ([6]; consortium in SC media, 10 μM external peptide, P = 0.013): 19 fold | barcode qPCR of diploids, Fg.Ste2 x Hj.Pheromone ([7]; SC + added peptide, individual replicates (n=3), SC alone: 0.003, 0.004, 0.001): 0 | barcode qPCR of diploids, Fg.Ste2 x Fo.Pheromone ([7]; SC + added peptide, individual replicates (n=3), SC alone: 0.005, 0.005, 0.013): 0.012 and 0.1 and 0.242 | barcode qPCR of diploids, Fg.Ste2 x no_Pheromone ([7]; SC + added peptide, individual replicates (n=3), SC alone: 0.012, 0.001, 0.003): 0.015 and 0.01 and 0.037 | barcode qPCR of diploids, Fg.Ste2 x Bb.Pheromone ([7]; SC + added peptide, individual replicates (n=3), SC alone: 0.012, 0.009, 0.006): 0.004 and 0 (2×) | barcode qPCR of diploids, Fg.Ste2 x Fg.Pheromone ([7]; SC + added peptide, individual replicates (n=3), SC alone: 0.206, 0.237, 0.235): 0.014 and 0.192 and 0 | Fold reduction of Fg.Ste2 and Fg.Pheromone interaction ([7]; consortium in SC media, 10 μM external peptide): 0.3 fold | Fold increase in diploids containing Fg.Ste2 ([7]; consortium in SC media, 10 μM external peptide, three biological replicates): without increasing | Fungal biomass in inoculated tomato roots (qPCR of Fol4287 actin gene, 2^−ΔΔCt, normalized to tomato gapdh) [8]: significant reduction in fungal biomass | Fold decline in diploids containing Fo.Ste2 [9]: 0.2 fold | Mean 2 (SC + peptide), Fo share of diploids [9]: 0.1003 | Mean Diff, SC vs. + peptide ([9]; n = 3): 0.3913 | Adhesion of F. oxysporum germ tubes among themselves or to tomato roots [10]: increased adhesion | Activation of Fo.Ste2 biosensor, in words [11]: agonists for Fo.Ste2 | logEC50 [11]: -9.288 | EC50 ([11]; read-out: half-maximal effective concentration (EC50)): 516 pM
